Measurements reported in patent US20050060764A1, “Mouse model for bone metabolism” (priority 2003, published 2005).
Strand notation (5' to 3'): a small letter for the sugar, then the base; units joined by * are phosphorothioate-linked, units joined directly phosphodiester-linked; [ ] holds rarer units or linkages, { } end groups; capitals alone tell only the bases. e = 2'-O-(2-methoxyethyl) (MOE); [5mC] = 5-methylcytosine; d = 2'-deoxy (DNA)

Columns and labels:
[1] = Serum calcium concentration after PTH infusion in mice treated with RANK antisense oligonucleotide: dosing schedule study (Table 14); format: in vivo, mouse
Procedure: In accordance with the present invention, various antisense oligonucleotide dosing schedules were tested for their ability to inhibit serum calcium concentration increase resulting from PTH infusion.
Female Swiss-Webster mice (5-8 wks old) were fed a low-calcium diet. The mice were dosed with the same total amount of ISIS 181071 (SEQ ID NO: 356) (450 mg/kg), however the frequency of the dosage was varied. The first group received daily injections for […]. The second group received daily injections of 30 mg/kg/day for 5 days; the remaining 300 mg/kg was divided into 12 injections over 24 days and were administered every other day. The third group received daily injections of 30 mg/kg/day for 5 days; the remaining 300 mg/kg was divided into 8 injections over 24 days and were administered every third day. The fourth group received daily injections of 30 mg/kg/day for 5 days; the remaining 300 mg/kg was divided into 6 injections over 24 days and were administered every fourth day. Each group contained eight mice. Treatment with oligonucleotides was followed with infusion of PTH by subcutaneously implanted mini-pumps at a dose of 1 ug/100 g/6 hr. A control group received saline or PTH alone (1 ug/100 g/6 hr). After 24 hours of PTH infusion (total PTH delivery of 4 ug/100 g), the mice were sacrificed and the serum calcium concentration was measured with the Sigma Diagnostics Calcium Kit (Sigma-Aldrich). The data are shown in Table 14 and are the average of eight mice per group.

[2] = Serum calcium concentration in mice treated with RANK antisense oligonucleotide, no PTH: dose response and delivery method (Table 11); format: in vivo, mouse
Procedure: In accordance with the present invention, antisense inhibition of the RANKL receptor, RANK, was evaluated in the short-term model of bone resorption. Serum calcium concentration was measured in mice treated with RANK antisense oligonucleotides at different doses, delivered by subcutaneous mini-pumps or subcutaneous injection.
ISIS 181071 ([…], SEQ ID NO: 356) is an antisense oligonucleotide targeted to mouse RANK. […] All cytidine residues are 5-methylcytidines.
Female Swiss-Webster mice (5-8 wks old), fed a low-calcium diet were treated with ISIS 181071 (SEQ ID NO: 356) for 15 days. The dose of oligonucleotide was either 30 mg/kg, 20 mg/kg, 10 mg/kg, 3 mg/kg, or 0.1 mg/kg administered by daily subcutaneous injections for the first five days, followed by mini-pump infusion for the remaining 10 days, or the dose was 10 mg/kg or 30 mg/kg administered daily by subcutaneous injection for the entire 15 day period. No PTH was administered to the mice that received oligonucleotide. A group of control mice were treated with either saline, PTH alone (1 ug/100 g/6 hr) or calcitonin (400 ng) plus PTH (1 ug/100 g/6 hr). After […] (total PTH delivery of 3 ug/100 g), blood samples were taken from the tail of the mice and the serum calcium concentration was measured with the Sigma Diagnostics Calcium Kit (Sigma-Aldrich). […] Thus, increase in serum calcium concentration is due to the PTH treatment rather than the oligonucleotide treatment.

RANK mRNA = RANK mRNA expression in mouse proximal tibia after antisense oligonucleotide treatment and PTH infusion: dose response and delivery method (Table 12); format: in vivo; conditions: then 24 h PTH
Procedure: (§1) In accordance with the present invention, ISIS 181071 was evaluated for its ability to inhibit RANK expression and PTH-induced serum calcium concentration increase following 18 days of oligonucleotide treatment.
(§2) Female Swiss-Webster mice (5-8 wks old), fed a low-calcium diet, were treated for 18 days with ISIS 181071 (SEQ ID NO: 356) at different doses and through different delivery methods. The dose of oligonucleotide was either 30 mg/kg, 20 mg/kg, 10 mg/kg, 3 mg/kg, or 0.1 mg/kg administered by daily subcutaneous injections for the first five days, followed by mini-pump infusion for the remaining 13 days, or the dose was 10 mg/kg or 30 mg/kg administered daily by subcutaneous injection for the entire 18 day period. After 18 days of treatment with oligonucleotides, the mice were infused with PTH by subcutaneously implanted mini-pumps at a dose of 1 ug/100 g/6 hr. A group of control mice received saline, calcitonin (400 ng) plus PTH (1 ug/100 g/6 hr) or PTH alone (1 ug/100 g/6 hr). After 24 hours of PTH infusion (total PTH delivery of 4ug/100 g), the mice were sacrificed and measurements were made of serum calcium with the Sigma Diagnostics Calcium Kit (Sigma-Aldrich) and RANK mRNA expression in proximal tibia (as described in other examples herein). The results are shown in Table 12 are normalized to PTH treatment alone and are the average of four mice per group.

[3] = Serum calcium concentration after RANK antisense oligonucleotide treatment and PTH infusion: dose response and delivery method (Table 12); format: in vivo, mouse
Procedure: as §1, §2

[4] = Short-term bone resorption model: serum calcium after PTH infusion (Table 6); format: in vivo, mouse; conditions: mice infused with PTH 1 ug/100 g/6 hr
Source text: Parathyroidectomized rats are a well-established, short-term model of bone resorption and are useful in the investigation of antiresorptive agents. However, it is difficult to surgically remove only the parathyroid gland of rodents, and the inadvertent removal of the adjacent thyroid gland often has effects on thyroid hormone levels that introduce into the experiment an undesirable level of variability. Continuous infusion of parathyroid hormone (PTH) into intact, young (6-9 weeks old) mice reproduces the short-term bone resorption activity seen in parathyroidectomized rodents and is thus a useful, non-invasive model for the study of antiresorptive agents. The PTH infusion activates bone osteoclasts and causes them to degrade bone matrix, with a resulting rise in serum calcium. In accordance with the present invention, a short-term mouse model of bone resorption was developed and used to evaluate the effects of PTH infusion on serum calcium concentration and RANKL mRNA levels.
Female, Swiss-Webster mice (5-8 weeks old) were placed on a low calcium diet and implanted with mini-pumps delivering PTH continuously. The pumps were calibrated to deliver 1 ug PTH per 100 g bodyweight per 6 hour time period (1 ug/100 g/6 hr). With this procedure, over a 24 hour period, a total of 4 ug PTH per 100 g body weight is delivered (4 ug/100 g/24 hr). PTH infusion was conducted in these mice for 6, 12, 18 and 24 hours. At the end of each time period, the mice were sacrificed and measurements were made of the serum calcium, using the Sigma Diagnostics Calcium Kit (Sigma-Aldrich), and RANKL mRNA expression in the proximal tibia, as described in other examples herein. The data are expressed as percent increase relative to no PTH treatment.

TCCTCGAGAGGTCTCCTTGC (antisense eT*e[5mC]*e[5mC]*eT*e[5mC]*dG*dA*dG*dA*dG*dG*dT*d[5mC]*dT*d[5mC]*e[5mC]*eT*eT*eG*e[5mC]) [ISIS 181071, 2′-MOE gapmer antisense oligonucleotide targeted to mouse RANK]
rise in serum calcium concentration in response to PTH infusion ([1]; mice, total 450 mg/kg, various dosing schedules, 24 hours PTH infusion): can similarly prevent the rise in serum calcium concentration | Serum calcium concentration ([1]; total 450 mg/kg, 30 mg/kg/day 5 days then every fourth day (6 injections over 24 days), then 24 h PTH): 18 mg/dL | Serum calcium concentration ([1]; total 450 mg/kg, 30 mg/kg/day 5 days then every other day (12 injections over 24 days), then 24 h PTH): 16 mg/dL | Serum calcium concentration ([1]; total 450 mg/kg, 30 mg/kg/day 5 days then every third day (8 injections over 24 days), then 24 h PTH): 17 mg/dL | Serum calcium concentration ([1]; total 450 mg/kg, daily injections for 2 weeks, then 24 h PTH): 16 mg/dL | Serum calcium concentration ([2]; 0.1 mg/kg, injection 5 days then mini-pump infusion 10 days, no PTH): 9 mg/dL | Serum calcium concentration ([2]; 3 mg/kg, injection 5 days then mini-pump infusion 10 days, no PTH): 9 mg/dL | Serum calcium concentration ([2]; 10 mg/kg daily subcutaneous injection 15 days, no PTH): 9 mg/dL | Serum calcium concentration ([2]; 10 mg/kg, injection 5 days then mini-pump infusion 10 days, no PTH): 9 mg/dL | Serum calcium concentration ([2]; 20 mg/kg, injection 5 days then mini-pump infusion 10 days, no PTH): 9 mg/dL | Serum calcium concentration ([2]; 30 mg/kg daily subcutaneous injection 15 days, no PTH): 8 mg/dL | Serum calcium concentration ([2]; 30 mg/kg, injection 5 days then mini-pump infusion 10 days, no PTH): 9 mg/dL | RANK mRNA % inhibition (normalized to PTH) (RANK mRNA; 0.1 mg/kg, injection 5 days then infusion 13 days): 19% | RANK mRNA % inhibition (normalized to PTH) (RANK mRNA; 3 mg/kg, injection 5 days then infusion 13 days): 5% | RANK mRNA % inhibition (normalized to PTH) (RANK mRNA; 10 mg/kg daily subcutaneous injection 18 days): 29% | RANK mRNA % inhibition (normalized to PTH) (RANK mRNA; 10 mg/kg, injection 5 days then infusion 13 days): 23% | RANK mRNA % inhibition (normalized to PTH) (RANK mRNA; 20 mg/kg, injection 5 days then infusion 13 days): 33% | RANK mRNA % inhibition (normalized to PTH) (RANK mRNA; 30 mg/kg daily subcutaneous injection 18 days): 30% | RANK mRNA % inhibition (normalized to PTH) (RANK mRNA; 30 mg/kg, injection 5 days then infusion 13 days): 32% | serum calcium ([3]; 0.1 mg/kg, injection 5 days then infusion 13 days, then 24 h PTH): 21 mg/dL | serum calcium ([3]; 3 mg/kg, injection 5 days then infusion 13 days, then 24 h PTH): 20 mg/dL | serum calcium ([3]; 10 mg/kg daily subcutaneous injection 18 days, then 24 h PTH): 18 mg/dL | serum calcium ([3]; 10 mg/kg, injection 5 days then infusion 13 days, then 24 h PTH): 18 mg/dL | serum calcium ([3]; 20 mg/kg, injection 5 days then infusion 13 days, then 24 h PTH): 18 mg/dL | serum calcium ([3]; 30 mg/kg daily subcutaneous injection 18 days, then 24 h PTH): 14 mg/dL | serum calcium ([3]; 30 mg/kg, injection 5 days then infusion 13 days, then 24 h PTH): 17 mg/dL

B1: parathyroid hormone (peptide, UniProt P01270 32-115, looked up)
Parathyroid hormone: SVSEIQLMHNLGKHLNSMERVEWLRKKLQDVHNFVALGAPLAPRDAGSQRPRKKEDNVLVESHEKSLGEADKADVNVLTKAKSQ
notes: parathyroid hormone infused to induce bone resorption in the mouse model
Serum calcium concentration ([1]; control group, PTH alone 1 ug/100 g/6 hr, 24 h): 21 mg/dL | Serum Calcium Concentration % control ([4]; 6 hours): 109 % control | Serum Calcium Concentration % control ([4]; 12 hours): 115 % control | Serum Calcium Concentration % control ([4]; 18 hours): 125 % control | Serum Calcium Concentration % control ([4]; 24 hours (4 ug/100 g)): 230 % control | Serum calcium concentration ([2]; control mice, no oligonucleotide, PTH 1 ug/100 g/6 hr, calcitonin 400 ng, after 16 hours): 9 mg/dL | serum calcium ([3]; control mice, no oligonucleotide, PTH 1 ug/100 g/6 hr 24 h, calcitonin 400 ng): 20 mg/dL
